{"source": "PubChem BioAssay (NCI)", "test_in_all_cases": "DTP human tumour cell line panel, 384-well format", "key": {"OVCAR-5 ovarian": {"test_system": "OVCAR-5 ovarian"}, "LOX IMVI melanoma": {"test_system": "LOX IMVI melanoma"}, "K-562 leukemia": {"test_system": "K-562 leukemia"}, "CCRF-CEM leukemia": {"test_system": "CCRF-CEM leukemia"}, "HOP-62 NSCLC": {"test_system": "HOP-62 NSCLC"}, "SF-268 CNS": {"test_system": "SF-268 CNS"}, "HOP-92 NSCLC": {"test_system": "HOP-92 NSCLC"}, "COLO 205 colon": {"test_system": "COLO 205 colon"}, "PC-3 prostate": {"test_system": "PC-3 prostate"}, "MDA-MB-468 breast": {"test_system": "MDA-MB-468 breast"}, "HCT-15 colon": {"test_system": "HCT-15 colon"}, "NCI-H460 NSCLC": {"test_system": "NCI-H460 NSCLC"}, "NCI/ADR-RES ovarian": {"test_system": "NCI/ADR-RES ovarian"}, "SNB-75 CNS": {"test_system": "SNB-75 CNS"}, "SW-620 colon": {"test_system": "SW-620 colon"}, "786-0 renal": {"test_system": "786-0 renal"}, "DU-145 prostate": {"test_system": "DU-145 prostate"}, "MALME-3M melanoma": {"test_system": "MALME-3M melanoma"}, "RPMI-8226 leukemia": {"test_system": "RPMI-8226 leukemia"}, "KM12 colon": {"test_system": "KM12 colon"}, "OVCAR-3 ovarian": {"test_system": "OVCAR-3 ovarian"}, "UACC-62 melanoma": {"test_system": "UACC-62 melanoma"}, "MDA-MB-435 melanoma": {"test_system": "MDA-MB-435 melanoma"}, "NCI-H23 lung": {"test_system": "NCI-H23 lung"}, "SNB-19 CNS": {"test_system": "SNB-19 CNS"}, "NCI-H522 lung": {"test_system": "NCI-H522 lung"}, "U251 glioblastoma": {"test_system": "U251 glioblastoma"}, "EKVX NSCLC": {"test_system": "EKVX NSCLC"}, "SK-MEL-28 melanoma": {"test_system": "SK-MEL-28 melanoma"}}, "note": "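At the GI50, growth is halved. TGI: concentration producing complete growth inhibition.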"}
{"smiles": "Cn1cc(-c2cnc3ccc4ccc(CS(=O)(=O)NCc5ccccn5)cc4c(=O)c3c2)cn1", "values": [{"measurement": "GI50", "setting": "OVCAR-5 ovarian", "value": 25.4, "unit": "µM"}, {"measurement": "TGI", "setting": "OVCAR-5 ovarian", "value": 49.3, "unit": "µM"}, {"measurement": "GI50", "setting": "LOX IMVI melanoma", "value": 16.3, "unit": "µM"}, {"measurement": "TGI", "setting": "LOX IMVI melanoma", "value": 30.2, "unit": "µM"}, {"measurement": "GI50", "setting": "K-562 leukemia", "value": 5.42, "unit": "µM"}, {"measurement": "TGI", "setting": "K-562 leukemia", "value": 17.8, "unit": "µM"}, {"measurement": "GI50", "setting": "CCRF-CEM leukemia", "value": 7.51, "unit": "µM"}, {"measurement": "TGI", "setting": "CCRF-CEM leukemia", "value": 19.8, "unit": "µM"}, {"measurement": "GI50", "setting": "HOP-62 NSCLC", "value": 13, "unit": "µM"}, {"measurement": "TGI", "setting": "HOP-62 NSCLC", "value": 27.8, "unit": "µM"}, {"measurement": "GI50", "setting": "SF-268 CNS", "value": 18.4, "unit": "µM"}, {"measurement": "TGI", "setting": "SF-268 CNS", "value": 38.6, "unit": "µM"}, {"measurement": "GI50", "setting": "HOP-92 NSCLC", "value": 14.7, "unit": "µM"}, {"measurement": "TGI", "setting": "HOP-92 NSCLC", "value": 34.1, "unit": "µM"}, {"measurement": "GI50", "setting": "COLO 205 colon", "value": 34.1, "unit": "µM"}, {"measurement": "TGI", "setting": "COLO 205 colon", "value": "> 100", "unit": "µM"}, {"measurement": "GI50", "setting": "PC-3 prostate", "value": 20.5, "unit": "µM"}, {"measurement": "TGI", "setting": "PC-3 prostate", "value": 42.5, "unit": "µM"}, {"measurement": "GI50", "setting": "MDA-MB-468 breast", "value": 2.79, "unit": "µM"}, {"measurement": "TGI", "setting": "MDA-MB-468 breast", "value": 7.05, "unit": "µM"}, {"measurement": "GI50", "setting": "HCT-15 colon", "value": 4.28, "unit": "µM"}, {"measurement": "TGI", "setting": "HCT-15 colon", "value": 14.7, "unit": "µM"}, {"measurement": "GI50", "setting": "NCI-H460 NSCLC", "value": 15.1, "unit": "µM"}, {"measurement": "TGI", "setting": "NCI-H460 NSCLC", "value": 28.9, "unit": "µM"}, {"measurement": "GI50", "setting": "NCI/ADR-RES ovarian", "value": 16.2, "unit": "µM"}, {"measurement": "TGI", "setting": "NCI/ADR-RES ovarian", "value": 37.4, "unit": "µM"}, {"measurement": "GI50", "setting": "SNB-75 CNS", "value": 15.9, "unit": "µM"}, {"measurement": "TGI", "setting": "SNB-75 CNS", "value": 30.2, "unit": "µM"}, {"measurement": "GI50", "setting": "SW-620 colon", "value": 14, "unit": "µM"}, {"measurement": "TGI", "setting": "SW-620 colon", "value": 28.8, "unit": "µM"}, {"measurement": "GI50", "setting": "786-0 renal", "value": 37.6, "unit": "µM"}, {"measurement": "TGI", "setting": "786-0 renal", "value": "> 100", "unit": "µM"}, {"measurement": "GI50", "setting": "DU-145 prostate", "value": 20, "unit": "µM"}, {"measurement": "TGI", "setting": "DU-145 prostate", "value": 51.2, "unit": "µM"}, {"measurement": "GI50", "setting": "MALME-3M melanoma", "value": 12.3, "unit": "µM"}, {"measurement": "TGI", "setting": "MALME-3M melanoma", "value": 25.4, "unit": "µM"}, {"measurement": "GI50", "setting": "RPMI-8226 leukemia", "value": 5.18, "unit": "µM"}, {"measurement": "TGI", "setting": "RPMI-8226 leukemia", "value": 17.5, "unit": "µM"}, {"measurement": "GI50", "setting": "KM12 colon", "value": 11.4, "unit": "µM"}, {"measurement": "TGI", "setting": "KM12 colon", "value": 26.6, "unit": "µM"}, {"measurement": "GI50", "setting": "OVCAR-3 ovarian", "value": 14, "unit": "µM"}, {"measurement": "TGI", "setting": "OVCAR-3 ovarian", "value": 28.1, "unit": "µM"}, {"measurement": "GI50", "setting": "UACC-62 melanoma", "value": 12, "unit": "µM"}, {"measurement": "TGI", "setting": "UACC-62 melanoma", "value": 24.5, "unit": "µM"}, {"measurement": "GI50", "setting": "MDA-MB-435 melanoma", "value": 3.77, "unit": "µM"}, {"measurement": "TGI", "setting": "MDA-MB-435 melanoma", "value": 12.2, "unit": "µM"}, {"measurement": "GI50", "setting": "NCI-H23 lung", "value": 11.6, "unit": "µM"}, {"measurement": "TGI", "setting": "NCI-H23 lung", "value": 24.5, "unit": "µM"}, {"measurement": "GI50", "setting": "SNB-19 CNS", "value": 20.8, "unit": "µM"}, {"measurement": "TGI", "setting": "SNB-19 CNS", "value": 53.1, "unit": "µM"}, {"measurement": "GI50", "setting": "NCI-H522 lung", "value": 13.1, "unit": "µM"}, {"measurement": "TGI", "setting": "NCI-H522 lung", "value": 25.9, "unit": "µM"}, {"measurement": "GI50", "setting": "U251 glioblastoma", "value": 21.2, "unit": "µM"}, {"measurement": "TGI", "setting": "U251 glioblastoma", "value": 65.3, "unit": "µM"}, {"measurement": "GI50", "setting": "EKVX NSCLC", "value": 17.9, "unit": "µM"}, {"measurement": "TGI", "setting": "EKVX NSCLC", "value": 35.7, "unit": "µM"}, {"measurement": "GI50", "setting": "SK-MEL-28 melanoma", "value": 17, "unit": "µM"}, {"measurement": "TGI", "setting": "SK-MEL-28 melanoma", "value": 32, "unit": "µM"}]}
